Measured values: patent publication US4439426A, “Semisynthetic macrolidic antibiotics, intermediate compounds for their preparation and related pharmaceutical compositions containing them” (priority 1981, dated 1984)
Converted amounts (≈) assume the structure as drawn.

Columns and labels:
[1] = Stability in acidic environment at 25° C. (half-life of initial microbiological activity); format: physicochemical; conditions: aqueous solution
Procedure: Stability in acidic environnment at 25° C. of the novel
Note: t 1/2 represents the time for reducing to one half the initial powe
of the antibiotic determined by microbiological method through diffusion
on a plate using the test stock Microccocus luteus (Sarcina lutea) ATCC

[2] = test system: Acholeplasma laidlawii ATCC 23206 LRP 204; test: Bacteriostatic power in solid medium (MIC); format: cell-based; conditions: Acholeplasma laidlawii, ATCC23206, read-out: Minimum inhibiting concentration
Source text: (§1) the bacteriostatic power, expressed as the minimum inhibiting concentration (MIC) against both aerobic and anaerobic, Gram positive and Gram negative, bacterial stocks: the related results are reported in the tables 2 and 3.

Bacillus subtilis LRP 25 = test: Bacteriostatic power in solid medium (MIC); format: cell-based; conditions: Bacillus subtilis, LRP25, read-out: Minimum inhibiting concentration
Source text: as §1

[3] = test system: Bacteroides fragilis ATCC 23745 LRP 205; test: Bacteriostatic power in solid medium (MIC); format: cell-based; conditions: Bacteroides fragilis, ATCC23745, read-out: Minimum inhibiting concentration
Source text: as §1

[4] = test system: Corynebacterium diphteriae LRP 24; test: Bacteriostatic power in solid medium (MIC); format: cell-based; conditions: Corynebacterium, LRP24, read-out: Minimum inhibiting concentration
Source text: as §1

Escherichia coli LRP 50 = test: Bacteriostatic power in solid medium (MIC); format: cell-based; conditions: Escherichia coli, LRP50, read-out: Minimum inhibiting concentration
Source text: as §1

[5] = test system: Fusobacteriumnecrophroum ATCC 27852 LRP 210; test: Bacteriostatic power in solid medium (MIC); format: cell-based; conditions: read-out: Minimum inhibiting concentration
Source text: as §1

[6] = test system: Haemophilus influenzae ATCC 19418 LRP 213; test: Bacteriostatic power in solid medium (MIC); format: cell-based; conditions: Haemophilus influenzae, ATCC19418, read-out: Minimum inhibiting concentration
Source text: as §1

[7] = test system: Klelsiella pneumoniae LRP 54; test: Bacteriostatic power in solid medium (MIC); format: cell-based; conditions: read-out: Minimum inhibiting concentration
Source text: as §1

[8] = test system: Micrococcus luteus ATCC 15957 LRP 193; test: Bacteriostatic power in solid medium (MIC); format: cell-based; conditions: Micrococcus luteus, ATCC15957, read-out: Minimum inhibiting concentration
Source text: as §1

[9] = test system: Micrococcus luteus ATCC 9341 LRP 6; test: Bacteriostatic power in solid medium (MIC); format: cell-based; conditions: Micrococcus luteus, ATCC9341, read-out: Minimum inhibiting concentration
Source text: as §1

[10] = test system: Mycoplasma hominis I ATCC 14027 LRP 211; test: Bacteriostatic power in solid medium (MIC); format: cell-based; conditions: Metamycoplasma hominis, ATCC14027, read-out: Minimum inhibiting concentration
Source text: as §1

[11] = test system: Neisseria gonorrhoeae ATCC 19424 LRP 214; test: Bacteriostatic power in solid medium (MIC); format: cell-based; conditions: Neisseria gonorrhoeae, ATCC19424, read-out: Minimum inhibiting concentration
Source text: as §1

[12] = test system: Proteus vulgaris ATCC 6380 LRP 13; test: Bacteriostatic power in solid medium (MIC); format: cell-based; conditions: Proteus vulgaris, ATCC6380, read-out: Minimum inhibiting concentration
Source text: as §1

[13] = test system: Pseudomonas aeruginosa LRP 9; test: Bacteriostatic power in solid medium (MIC); format: cell-based; conditions: Pseudomonas aeruginosa, LRP9, read-out: Minimum inhibiting concentration
Source text: as §1

Shigella sonnei LRP 5 = test: Bacteriostatic power in solid medium (MIC); format: cell-based; conditions: LRP5, read-out: Minimum inhibiting concentration
Source text: as §1

[14] = test system: Staphylococcus aureus ATCC 14154 LRP 78; test: Bacteriostatic power in solid medium (MIC); format: cell-based; conditions: Staphylococcus aureus, ATCC14154, read-out: Minimum inhibiting concentration
Source text: as §1

[15] = test system: Staphylococcus aureus ATCC 6538P LRP 14; test: Bacteriostatic power in solid medium (MIC); format: cell-based; conditions: Staphylococcus aureus, ATCC6538P, read-out: Minimum inhibiting concentration
Source text: as §1

[16] = test system: Staphylococcus aureus ATCC 6538P LRP 39; test: Bacteriostatic power in solid medium (MIC); format: cell-based; conditions: Staphylococcus aureus, ATCC6538P, read-out: Minimum inhibiting concentration
Source text: as §1

[17] = test system: Streptococcus faecalis LRP 7; test: Bacteriostatic power in solid medium (MIC); format: cell-based; conditions: Enterococcus faecalis, LRP7, read-out: Minimum inhibiting concentration
Source text: as §1

[18] = test system: Streptococcus faecalis subsp. zymogenes ATCC 12958 LRP 61; test: Bacteriostatic power in solid medium (MIC); format: cell-based; conditions: Enterococcus faecalis, ATCC12958, read-out: Minimum inhibiting concentration
Source text: as §1

[19] = test system: Streptococcus pneumoniae ATCC 6303 LRP 35; test: Bacteriostatic power in solid medium (MIC); format: cell-based; conditions: Streptococcus pneumoniae, ATCC6303, read-out: Minimum inhibiting concentration
Source text: as §1

[20] = test system: Streptococcus pneumoniae ATCC 6303 LRP 52; test: Bacteriostatic power in solid medium (MIC); format: cell-based; conditions: Streptococcus pneumoniae, ATCC6303, read-out: Minimum inhibiting concentration
Source text: as §1

[21] = test system: Streptococcus pneumoniae ATCC 6303 LRP 53; test: Bacteriostatic power in solid medium (MIC); format: cell-based; conditions: Streptococcus pneumoniae, ATCC6303, read-out: Minimum inhibiting concentration
Source text: as §1

[22] = test system: Streptococcus pyogenes ATCC 8668 LRP 197; test: Bacteriostatic power in solid medium (MIC); format: cell-based; conditions: Streptococcus pyogenes, ATCC8668, read-out: Minimum inhibiting concentration
Source text: as §1

[23] = test system: Streptococcus pyogenes ATCC 8668 LRP 34; test: Bacteriostatic power in solid medium (MIC); format: cell-based; conditions: Streptococcus pyogenes, ATCC8668, read-out: Minimum inhibiting concentration
Source text: as §1

[24] = test system: Clostridium perfrigens ATCC 3624 LRP 206; test: microbe, parasite or virus in culture; format: cell-based; conditions: ATCC3624, solid medium, anaerobic, read-out: Minimum inhibiting concentration
Source text: as §1

Salmonella typhy LRP 8 = test: microbe, parasite or virus in culture; format: cell-based; conditions: LRP8, solid medium, read-out: Minimum inhibiting concentration
Source text: as §1

[25] = test system: Corynebacterium diphteriae LRP 24; test: Bacteriostatic power in liquid medium (MIC); format: cell-based; conditions: Corynebacterium, LRP24, read-out: Minimum inhibiting concentration
Source text: as §1

[26] = test system: Staphylococcus aureus ATCC 6538 P LRP 39; test: Bacteriostatic power in liquid medium (MIC); format: cell-based; conditions: Staphylococcus aureus, ATCC6538, read-out: Minimum inhibiting concentration
Source text: as §1

[27] = test system: Streptococcus faecalis subs. zymogenes ATCC 12958 LRP 61; test: Bacteriostatic power in liquid medium (MIC); format: cell-based; conditions: Enterococcus faecalis, ATCC12958, read-out: Minimum inhibiting concentration
Source text: as §1

[28] = test system: Streptococcus pneumoniae ATCC 6303 LRP 35; test: Bacteriostatic power in liquid medium (MIC); format: cell-based; conditions: Streptococcus pneumoniae, ATCC6303, read-out: Minimum inhibiting concentration
Source text: as §1

[29] = test system: Streptococcus pyogenes ATCC 8668 LRP 34; test: Bacteriostatic power in liquid medium (MIC); format: cell-based; conditions: Streptococcus pyogenes, ATCC8668, read-out: Minimum inhibiting concentration
Source text: as §1

[30] = test system: Corynebacterium diphteriae LRP 24; test: Minimum bactericidal concentration (MBC); format: cell-based
Source text: (§2) the bacterial power, expressed as the minimum bactericidal power (MBC) against some Gram positive aerobic stocks (table 5).

[31] = test system: Staphylococcus aureus ATCC 6538 P LRP 39; test: Minimum bactericidal concentration (MBC); format: cell-based
Source text: as §2

[32] = test system: Streptococcus faecalis subs. zymogenes LRP 61; test: Minimum bactericidal concentration (MBC); format: cell-based
Source text: as §2

[33] = test system: Streptococcus pneumoniae ATCC 6303 LRP 35; test: Minimum bactericidal concentration (MBC); format: cell-based
Source text: as §2

[34] = test system: Streptococcus pyogenes ATCC 8668 LRP 34; test: Minimum bactericidal concentration (MBC); format: cell-based
Source text: as §2

CC[C@H]1OC(=O)[C@H](C)[C@@H](O[C@H]2C[C@H](OC)[C@@H](O)[C@H](C)O2)[C@H](C)[C@@H](O[C@@H]2O[C@H](C)C[C@H](N(C)C)[C@H]2O)[C@](C)(O)C[C@](C)(F)C(=O)[C@H](C)[C@@H](O)[C@]1(C)O [P-80207, 3-O-oleandrosyl-5-O-desosaminyl-(8S)-8-fluoroerythronolide A]
half-life ([1]; pH 2): 10 h | half-life ([1]; pH 3): 100 h | MIC [2]: 3.12 µg/mL (≈ 4.23 µM) | MIC (Bacillus subtilis LRP 25): 0.39 µg/mL (≈ 0.529 µM) | MIC [3]: 3.12 µg/mL (≈ 4.23 µM) | MIC [4]: 0.049 µg/mL (≈ 0.0664 µM) | MIC (Escherichia coli LRP 50): 25 µg/mL (≈ 33.9 µM) | MIC [5]: 12.5 µg/mL (≈ 16.9 µM) | MIC [6]: 12.5 µg/mL (≈ 16.9 µM) | MIC [7]: 25 µg/mL (≈ 33.9 µM) | MIC [8]: 25 µg/mL (≈ 33.9 µM) | MIC [9]: 0.049 µg/mL (≈ 0.0664 µM) | MIC [10]: 25 µg/mL (≈ 33.9 µM) | MIC [11]: 0.097 µg/mL (≈ 0.131 µM) | MIC [12]: 25 µg/mL (≈ 33.9 µM) | MIC [13]: 25 µg/mL (≈ 33.9 µM) | MIC (Shigella sonnei LRP 5): 25 µg/mL (≈ 33.9 µM) | MIC [14]: 25 µg/mL (≈ 33.9 µM) | MIC [15]: 0.39 µg/mL (≈ 0.529 µM) | MIC [16]: 0.39 µg/mL (≈ 0.529 µM) | MIC [17]: 0.39 µg/mL (≈ 0.529 µM) | MIC [18]: 0.39 µg/mL (≈ 0.529 µM) | MIC [19]: 0.049 µg/mL (≈ 0.0664 µM) | MIC [20]: 0.049 µg/mL (≈ 0.0664 µM) | MIC [21]: 0.097 µg/mL (≈ 0.131 µM) | MIC [22]: 0.097 µg/mL (≈ 0.131 µM) | MIC [23]: 0.049 µg/mL (≈ 0.0664 µM) | MIC [24]: 6.25 µg/mL (≈ 8.47 µM) | MIC (Salmonella typhy LRP 8): 25 µg/mL (≈ 33.9 µM) | MIC [25]: 0.049 µg/mL (≈ 0.0664 µM) | MIC [26]: 0.78 µg/mL (≈ 1.06 µM) | MIC [27]: 0.78 µg/mL (≈ 1.06 µM) | MIC [28]: 0.049 µg/mL (≈ 0.0664 µM) | MIC [29]: 0.097 µg/mL (≈ 0.131 µM) | MBC/MIC [30]: 4 | MBC ([30]; Corynebacterium, LRP24, read-out: Minimum bactericidal concentration (MBC)): 0.195 µg/mL (≈ 0.264 µM) | MBC/MIC [31]: 8 | MBC ([31]; Staphylococcus aureus, ATCC6538, read-out: Minimum bactericidal concentration (MBC)): 6.25 µg/mL (≈ 8.47 µM) | MBC/MIC [32]: 8 | MBC ([32]; Enterococcus faecalis, read-out: Minimum bactericidal concentration (MBC)): 6.25 µg/mL (≈ 8.47 µM) | MBC/MIC [33]: 2 | MBC ([33]; Streptococcus pneumoniae, ATCC6303, read-out: Minimum bactericidal concentration (MBC)): 0.097 µg/mL (≈ 0.131 µM) | MBC/MIC [34]: 8 | MBC ([34]; Streptococcus pyogenes, ATCC8668, read-out: Minimum bactericidal concentration (MBC)): 0.78 µg/mL (≈ 1.06 µM)
